Measured values published in ChEMBL document CHEMBL1811854, “Phenolic compounds from the roots of Jordanian viper's grass, Scorzonera judaica” (J Nat Prod, 2011).

Tests used:
Assay type in all cases: functional, cell-based
[1] = tested on: Jurkat; assay: Cytotoxicity against human Jurkat cells by MTT assay
[2] = tested on: HeLa; assay: Cytotoxicity against human HeLa cells by MTT assay
[3] = tested on: MCF7; assay: Cytotoxicity against human MCF7 cells by MTT assay

Measured: IC50

O=C1OC(c2ccc(O)c(O)c2)C/C1=C\c1ccc(O)c(O)c1 (configuration not stated)
> 100 µM: all assays above

C[C@@H]1O[C@@H](O[C@@H]2[C@@H](O)[C@H](Oc3ccc([C@@H]4Cc5cccc(O)c5C(=O)O4)cc3)O[C@H](CO)[C@H]2O)[C@H](O)[C@H](O)[C@H]1O
> 100 µM: all assays above

O=C(O)c1c(O)cccc1/C=C/c1ccc(O[C@@H]2O[C@H](CO)[C@@H](O)[C@H](O)[C@H]2O)cc1
> 100 µM: all assays above

COc1cc([C@H]2O[C@H](O[C@@H]3O[C@H](CO)[C@@H](O)[C@H](O)[C@H]3O)[C@H]3[C@H]2CO[C@H]3c2ccc(O)c(OC)c2)ccc1O
> 100 µM: all assays above

COc1cc(C(=O)Cc2cccc(O)c2C(=O)O)cc(O)c1O
> 100 µM: all assays above

O=C1O/C(=C\c2ccc(O)c(O)c2)c2cccc(O[C@@H]3O[C@H](CO)[C@@H](O)[C@H](O)[C@H]3O)c21
> 100 µM: all assays above

O=C(Cc1cccc(O)c1C(=O)O)c1ccc(O)c(O)c1
> 100 µM: all assays above

O=C1OC(c2ccc(O)c(O)c2)=C/C1=C/c1ccc(O)c(O)c1
> 100 µM: all assays above

O=C(Cc1cccc(O)c1C(=O)O)c1ccc(O)cc1
> 100 µM: all assays above
